Data on 54 compounds can be found in ChEMBL document CHEMBL1250481, “Isoxazole analogs of curcuminoids with highly potent multidrug-resistant antimycobacterial activity” (2010).

Converted amounts (≈) assume the structure as drawn. The source made the active and inactive calls. The calls are words filed in the database; no cut-off is given here.

Usually MIC stands for the least concentration at which growth counts as inhibited.

One experiment has as its system Mycobacterium tuberculosis. Nature of the experiment: Antimycobacterial activity against Mycobacterium tuberculosis H37Ra after 24 hrs by microtiter alamar blue assay. It counts as functional. In general terms: Alamar Blue is a resazurin reagent that responds to reducing activity.
Compound `COc1cc(/C=C/C(=O)CC(=O)/C=C/c2ccc(O)c(OC)c2)ccc1O` [CURCUMIN] had an MIC of 100 µg/mL (≈ 271 µM).

`COc1cc(/C=C/C=C/C(=O)CCc2ccc(O)c(OC)c2)ccc1O` displayed an MIC of 25 µg/mL (≈ 70.5 µM). `COc1cc(/C=C/C(=O)CC(=O)/C=C/c2ccc(O)c(O)c2)ccc1O` showed a minimal inhibitory concentration (MIC) of 200 µg/mL (≈ 564 µM).

Consider `COc1cc(/C=C/C(=O)CC(=O)/C=C/c2ccc(OC(C)=O)cc2)ccc1O`, for which the minimum inhibitory concentration (MIC) came out at 50 µg/mL (≈ 131 µM). `Oc1ccc(/C=C/c2cc(/C=C/c3ccc(O)cc3)on2)cc1` came in with an MIC of 12.5 µg/mL (≈ 40.9 µM).

`COc1cc(/C=C/C(=O)/C=C/CCc2ccc(O)c(OC)c2)ccc1O` gave an MIC of 12.5 µg/mL (≈ 35.3 µM).

The compound `O=C(/C=C/c1ccc(O)c(O)c1)CC(=O)/C=C/c1ccc(O)c(O)c1` [DIDEMETHYLCURCUMIN] had an MIC of 100 µg/mL (≈ 294 µM). On to `O=C(/C=C/c1ccc(O)cc1)CC(=O)/C=C/c1ccc(O)cc1` [BISDEMETHOXYCURCUMIN], for which the MIC amounted to 25 µg/mL (≈ 81.1 µM). In the case of `COc1cc(/C=C/c2cc(/C=C/c3ccc(O)c(OC)c3)on2)ccc1O`, the MIC came to 1.56 µg/mL (≈ 4.27 µM). `COc1cc(CC/C=C/C(=O)CCc2ccc(O)c(OC)c2)ccc1O` yielded an MIC of 25 µg/mL (≈ 70.1 µM).

For the compound `COc1cc(/C=C/c2cc(/C=C/c3ccc(OC)c(OC)c3)no2)ccc1O`, the MIC is 0.09 µg/mL (≈ 0.237 µM). `COc1ccc(/C=C/C(=O)CC(=O)/C=C/c2ccc(OC)c(OC)c2)cc1OC` [TETRAMETHOXYCURCUMIN]: the lowest concentration to inhibit growth (MIC) was 100 µg/mL (≈ 252 µM). `COc1cc(/C=C/C(=O)CC(=O)/C=C/c2ccc(OC(C)=O)c(OC)c2)ccc1O` displayed an MIC of 100 µg/mL (≈ 244 µM). `COc1cc(/C=C/C(=O)CC(=O)/C=C/c2ccc(OC)c(OC)c2)ccc1O` showed an MIC of 50 µg/mL (≈ 131 µM). `COc1cc(/C=C/C(=O)CC(=O)/C=C/c2ccc(OCCO)c(OC)c2)ccc1OCCO`: the MIC was 200 µg/mL (≈ 438 µM). Still for that read-out and setting: next, `COc1ccc(/C=C/c2cc(/C=C/c3ccc(OC)c(OC)c3)on2)cc1OC`: 0.39 µg/mL (≈ 0.991 µM); `NC[C@H]1O[C@H](O[C@H]2[C@H](O)[C@@H](O[C@H]3O[C@H](CO)[C@@H](O)[C@H](N)[C@H]3O)[C@H](N)C[C@@H]2N)[C@H](O)[C@@H](O)[C@@H]1O` [KANAMYCIN]: 2.5 µg/mL (≈ 5.16 µM). For `CCCCCOc1ccc(/C=C/c2cc(/C=C/c3ccc(O)c(OC)c3)no2)cc1OC`, the minimum inhibitory concentration (MIC) came out at 6.25 µg/mL (≈ 14.4 µM). `CC(=O)Oc1ccc(/C=C/C(=O)CC(=O)/C=C/c2ccc(O)cc2)cc1` gave an MIC of 25 µg/mL (≈ 71.4 µM). In turn, `CCCOc1ccc(/C=C/C(=O)CC(=O)/C=C/c2ccc(OCCC)c(OC)c2)cc1OC` gave a minimal inhibitory concentration (MIC) of 200 µg/mL (≈ 442 µM). `CCCCCOc1ccc(/C=C/C(=O)CC(=O)/C=C/c2ccc(O)c(OC)c2)cc1OC` yielded an MIC of 12.5 µg/mL (≈ 28.5 µM). `COc1cc(/C=C/C(=O)CC(=O)CCc2ccc(O)c(OC)c2)ccc1O` came in with an MIC of 200 µg/mL (≈ 540 µM).

Take `COc1cc(/C=C/C(=O)CC(=O)/C=C/c2ccc(OCCO)c(OC)c2)ccc1O`: it took 200 µg/mL (≈ 485 µM) to inhibit growth (MIC). `COc1cc(/C=C/c2cc(/C=C/c3ccc(OC(C)=O)c(OC)c3)no2)ccc1O` returned an MIC of 1.56 µg/mL (≈ 3.83 µM). Consider `Oc1ccc(/C=C/c2cc(/C=C/c3ccc(O)cc3)[nH]n2)cc1`, for which 25 µg/mL (≈ 82.1 µM) was the least that counted as inhibitory (MIC). Regarding `COc1cc(CCC(=O)CC(O)CCc2ccc(O)c(OC)c2)ccc1O` (stereo not drawn) [HEXAHYDROCURCUMIN], the lowest concentration to inhibit growth (MIC) was 100 µg/mL (≈ 267 µM). Still for that read-out and setting: next, `CCCCCOc1ccc(/C=C/C(=O)CC(=O)/C=C/c2ccc(OCCCCC)c(OC)c2)cc1OC`: 100 µg/mL (≈ 197 µM); `COc1cc(/C=C/c2cc(/C=C/c3ccc(O)c(OC)c3)n(-c3ccccc3)n2)ccc1O`: 25 µg/mL (≈ 56.8 µM).

`COc1cc(/C=C/c2cc(/C=C/c3ccc(OC(C)=O)c(OC)c3)on2)ccc1OC(C)=O`: the MIC was found to be 1.56 µg/mL (≈ 3.47 µM).

In the case of `CCCOc1ccc(/C=C/C(=O)CC(=O)/C=C/c2ccc(O)c(OC)c2)cc1OC`, the lowest concentration to inhibit growth (MIC) was 25 µg/mL (≈ 60.9 µM). `CCCCCOc1ccc(/C=C/c2cc(/C=C/c3ccc(O)c(OC)c3)on2)cc1OC` gave an MIC of 0.39 µg/mL (≈ 0.895 µM). On to `COc1cc(/C=C/C(=O)CC(=O)/C=C/c2ccc(OC(C)=O)cc2)ccc1OC(C)=O`, for which the MIC was found to be 100 µg/mL (≈ 237 µM).

On to `COc1cc(/C=C/C=C/C(=O)/C=C/c2ccc(O)c(OC)c2)ccc1O`, for which the MIC came out at 12.5 µg/mL (≈ 35.5 µM). In the case of `COc1cc(/C=C/c2cc(/C=C/c3ccc(O)cc3)[nH]n2)ccc1O`, 100 µg/mL (≈ 299 µM) was the least that counted as inhibitory (MIC). `O=C(/C=C/c1ccc(O)cc1)CC(=O)/C=C/c1ccc(O)c(O)c1` had an MIC of 200 µg/mL (≈ 617 µM).

In the case of `COc1cc(CCc2cc(CCc3ccc(O)c(OC)c3)on2)ccc1O`, the MIC was 100 µg/mL (≈ 271 µM). For `COc1cc(/C=C/c2cc(CCc3ccc(O)c(OC)c3)on2)ccc1O`, 6.25 µg/mL (≈ 17 µM) was the least that counted as inhibitory (MIC). The compound `COc1cc(/C=C/C(=O)CC(=O)/C=C/c2ccc(O)cc2)ccc1OC(C)=O` returned an MIC of 50 µg/mL (≈ 131 µM). The compound `CO[C@H]1/C=C/O[C@@]2(C)Oc3c(C)c(O)c4c(O)c(c(/C=N/N5CCN(C)CC5)c(O)c4c3C2=O)NC(=O)/C(C)=C\C=C\[C@H](C)[C@H](O)[C@@H](C)[C@@H](O)[C@@H](C)[C@H](OC(C)=O)[C@@H]1C` [RIFAMPIN] gave a minimal inhibitory concentration (MIC) of 0.004 µg/mL (≈ 0.00486 µM).

For the compound `Oc1ccc(/C=C/c2cc(/C=C/c3ccc(O)c(O)c3)on2)cc1O`, the MIC amounted to 200 µg/mL (≈ 593 µM). Regarding `COc1cc(/C=C/c2cc(/C=C/c3ccc(OC)c(OC)c3)on2)ccc1O`, the MIC amounted to 0.78 µg/mL (≈ 2.06 µM). `COc1cc(/C=C/C(=O)CC(=O)/C=C/c2ccc(OC(C)=O)c(OC)c2)ccc1OC(C)=O` showed an MIC of 200 µg/mL (≈ 442 µM). Take `COc1cc(/C=C/C(O)=C/C(=O)/C=C/c2ccc(O)cc2)ccc1O` [DEMETHOXYCURCUMIN]: the MIC stood at 50 µg/mL (≈ 148 µM).

As to `COc1cc(/C=C/c2cc(/C=C/c3ccc(O)c(OC)c3)[nH]n2)ccc1O` [CURCUMIN PYRAZOLE], the MIC was 200 µg/mL (≈ 549 µM). Compound `COc1cc(/C=C/c2cc(/C=C/c3ccc(OC(C)=O)c(OC)c3)on2)ccc1O` registered an MIC of 1.56 µg/mL (≈ 3.83 µM). In turn, `NNC(=O)c1ccncc1` [ISONIAZID] gave an MIC of 0.06 µg/mL (≈ 0.438 µM).

Compound `C=CCOc1ccc(/C=C/C(=O)CC(=O)/C=C/c2ccc(O)c(OC)c2)cc1OC` registered an MIC of 100 µg/mL (≈ 245 µM).

Regarding `COc1cc(CCCCC(=O)CCc2ccc(O)c(OC)c2)ccc1O`, the minimum inhibitory concentration (MIC) amounted to 100 µg/mL (≈ 279 µM). `CC(=O)Oc1ccc(/C=C/C(=O)CC(=O)/C=C/c2ccc(OC(C)=O)cc2)cc1`: the lowest concentration to inhibit growth (MIC) was 25 µg/mL (≈ 63.7 µM).

`COc1cc(CCC(=O)CC(=O)CCc2ccc(O)c(OC)c2)ccc1O` [TETRAHYDROCURCUMIN] gave an MIC of 50 µg/mL (≈ 134 µM).

Another experiment deals with Mycobacterium tuberculosis. Nature of the experiment: Antimycobacterial activity against Mycobacterium tuberculosis H37Ra at 200 ug/ml after 24 hrs by microtiter alamar blue assay. Format: functional, organism-based.
On to `COc1ccc(/C=C/c2cc(/C=C/c3ccc(OC)cc3)on2)cc1`, for which the MIC result was “inactive”. As for `CCCCCOc1ccc(/C=C/c2cc(/C=C/c3ccc(OCCCCC)c(OC)c3)on2)cc1OC`, the MIC entry was “inactive”. Turning to `C=CCOc1ccc(/C=C/C(=O)CC(=O)/C=C/c2ccc(OCC=C)c(OC)c2)cc1OC`, the MIC entry is “inactive”. In the case of `COc1cc(CCC(O)CC(O)CCc2ccc(O)c(OC)c2)ccc1O` (stereo not drawn), the MIC result is “inactive”.

Another experiment deals with Mycobacterium tuberculosis. Nature of the experiment: Antimycobacterial activity against Pan-sensitive Mycobacterium tuberculosis H37Ra after 24 hrs by microtiter alamar blue assay. Format: functional.
`COc1cc(/C=C/c2cc(/C=C/c3ccc(OC)c(OC)c3)no2)ccc1O` registered an MIC of 0.09 µg/mL (≈ 0.237 µM). In the case of `CCCCCOc1ccc(/C=C/c2cc(/C=C/c3ccc(O)c(OC)c3)no2)cc1OC`, the MIC came to 6.25 µg/mL (≈ 14.4 µM). The same measure, in the same setting: next, `CCCCCOc1ccc(/C=C/c2cc(/C=C/c3ccc(O)c(OC)c3)on2)cc1OC`: 0.39 µg/mL (≈ 0.895 µM); `COc1cc(/C=C/c2cc(/C=C/c3ccc(OC)c(OC)c3)on2)ccc1O`: 0.78 µg/mL (≈ 2.06 µM).
